{
  "source": "paper PMC9917443",
  "about": "(eLife, 2023)",
  "key": {"[1]": {"test_system": "GB1a/2 receptors in HEK293T cells", "experiment": "APP17-TMR binding / displacement at GB1a/2 receptors in HEK293T cells", "conditions": "10 μM peptide", "procedure": "Transfected HEK293T cells expressing Flag-GB1a and Flag-GB2 were seeded into 96-well microplates (Greiner Bio-One, Kremsmünster, Austria) at 50,000 cells/well. After 18 hr, peptides were mixed with conditioned medium at the following final concentrations: APP17-TMR (1 µM) with either APP17 (10 µM), sc-APP17 (10 µM), or PBS (vehicle); sc-APP17-TMR (1 µM) in PBS was used as a negative control. After removal of medium, peptide mixes were added to the wells and cells incubated in the dark for 1 hr at room temperature. After removal of the peptides, PBS with MgCl2 and CaCl2 (Sigma-Aldrich) was added to the wells. TMR fluorescence was monitored with a Spark microplate reader (Tecan Group, Männerdorf, Switzerland) using a monochromator (Excitation 544 nm, […] bandwidth; detection […], 25 nm bandwidth). TMR fluorescence was determined after subtraction of the sc-APP17-TMR fluorescence measured at HEK293T cells transfected with pCI plasmid."}, "[2]": {"test_system": "mEPSCs of cultured hippocampal neurons", "experiment": "mEPSC frequency in cultured hippocampal neurons", "assay_type": "cell-based, mouse", "conditions": "APP17 250 nM, 0.5 μM TTX, DIV13–16", "procedure": "(§1) GB1a/2 receptors are abundant at axon terminals where they inhibit neurotransmitter release ([Vigot et al., 2006]). […] A GBR antagonist blocked the effect of APP17 on the mEPSC frequency, supporting a GBR-dependent mechanism. […] We additionally studied whether APP17 at 250 nM influences eEPSC amplitudes in acute hippocampal slices. Postsynaptic GBR-activated K^+ currents were blocked with a Cs^+-based intracellular solution, which allowed to specifically monitor the activity of presynaptic GBRs.\n(§2) Neuronal cultures and HEK293T cells were prepared as described ([Dinamarca et al., 2019]). Coverslips with hippocampal neurons (DIV 12–15) or HEK293T cells were transferred to a chamber containing a low-K^+ bath solution (in mM): 145 NaCl, 4 KCl, 5 HEPES, 5.5 D-glucose, 1 MgCl2, and 1.8 CaCl2 (pH 7.4 adjusted with NaOH). Recordings were performed at room temperature using borosilicate pipettes of 3–5 MΩ resistance tips, filled with K-gluconate-based pipette solution (in mM): 150 K-gluconate, 1.1 EGTA, 10 HEPES, 10 Tris-phosphocreatine, 0.3 NaGTP, and 4 MgATP (pH 7.2 adjusted with KOH). […] Evoked EPSCs were recorded at –60 mV with a Cs^+-based intracellular solution. […] We recorded mEPSCs in primary neuronal cultures established from embryonic (E15–17) murine hippocampus at DIV13–16 in the presence of 0.5 μM TTX at room temperature ([Dinamarca et al., 2019]). […]"}, "[3]": {"test_system": "eEPSCs of CA1 pyramidal neurons", "experiment": "eEPSC amplitudes in CA1 pyramidal neurons of acute hippocampal slices", "design": "species or system mouse", "conditions": "APP17 250 nM or baclofen 20 µM, Cs^+-based intracellular solution", "procedure": "as §1, §2"}, "CA1 pyramidal cells": {"test_system": "CA1 pyramidal cells", "conditions": "anesthetized mice, two-photon Ca^2+ imaging; ref Rice et al., 2019; cited from earlier work", "description": "GBRs are composed of a GB1a or GB1b subunit with a GB2 subunit, which generates heterodimeric GB1a/2 and GB1b/2 receptors ([Pin and Bettler, 2016]). GB1a differs from GB1b by the presence of two N-terminal sushi domains (SD1/2). GB1a/2 and GB1b/2 receptors predominantly localize to pre- and postsynaptic sites, respectively ([Vigot et al., 2006]). APP and sAPP bind to SD1 of GB1a ([Schwenk et al., 2016]; [Dinamarca et al., 2019]; [Rice et al., 2019])."}, "[4]": {"test_system": "native GBRs in mouse brain membranes", "experiment": "[^35S]GTPγS binding in brain membrane preparations"}, "[5]": {"test_system": "spontaneous neuronal activity in the auditory cortex", "experiment": "two-photon Ca^2+ imaging of auditory cortex in anesthetized mice", "conditions": "5 µM perfused over cortex; peptides 60 min, baclofen 15 min"}, "GB1a/2 receptors [6]": {"target": "T1, GB1a/2 receptors (Homo sapiens, UniProt O75899+Q9UBS5)", "T1 sequence (Q9UBS5 15-961 limits assumed)": "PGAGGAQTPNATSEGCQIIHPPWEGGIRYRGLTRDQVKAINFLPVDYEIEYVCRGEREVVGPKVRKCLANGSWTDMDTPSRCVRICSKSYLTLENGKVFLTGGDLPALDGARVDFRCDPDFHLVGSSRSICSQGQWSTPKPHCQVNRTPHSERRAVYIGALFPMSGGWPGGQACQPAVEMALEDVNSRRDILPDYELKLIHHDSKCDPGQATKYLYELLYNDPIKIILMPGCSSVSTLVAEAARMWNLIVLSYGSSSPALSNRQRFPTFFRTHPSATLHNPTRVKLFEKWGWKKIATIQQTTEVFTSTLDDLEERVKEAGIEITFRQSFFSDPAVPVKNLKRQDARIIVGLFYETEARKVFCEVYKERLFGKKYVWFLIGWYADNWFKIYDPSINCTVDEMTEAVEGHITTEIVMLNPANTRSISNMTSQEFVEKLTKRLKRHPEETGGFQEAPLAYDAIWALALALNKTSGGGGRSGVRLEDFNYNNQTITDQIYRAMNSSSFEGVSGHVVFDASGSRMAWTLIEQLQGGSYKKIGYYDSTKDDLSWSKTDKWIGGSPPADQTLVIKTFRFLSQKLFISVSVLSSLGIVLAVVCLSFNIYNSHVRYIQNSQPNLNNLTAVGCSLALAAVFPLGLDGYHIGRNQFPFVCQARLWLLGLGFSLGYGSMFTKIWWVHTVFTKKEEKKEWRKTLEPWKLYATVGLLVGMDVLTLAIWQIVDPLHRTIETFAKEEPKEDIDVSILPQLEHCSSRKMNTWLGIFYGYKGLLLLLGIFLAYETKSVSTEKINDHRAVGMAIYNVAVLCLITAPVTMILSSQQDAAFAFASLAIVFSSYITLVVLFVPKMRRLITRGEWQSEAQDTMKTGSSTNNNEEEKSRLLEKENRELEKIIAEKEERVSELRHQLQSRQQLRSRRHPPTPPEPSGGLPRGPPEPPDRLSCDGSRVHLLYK", "T1 sequence (O75899 42-941 partner)": "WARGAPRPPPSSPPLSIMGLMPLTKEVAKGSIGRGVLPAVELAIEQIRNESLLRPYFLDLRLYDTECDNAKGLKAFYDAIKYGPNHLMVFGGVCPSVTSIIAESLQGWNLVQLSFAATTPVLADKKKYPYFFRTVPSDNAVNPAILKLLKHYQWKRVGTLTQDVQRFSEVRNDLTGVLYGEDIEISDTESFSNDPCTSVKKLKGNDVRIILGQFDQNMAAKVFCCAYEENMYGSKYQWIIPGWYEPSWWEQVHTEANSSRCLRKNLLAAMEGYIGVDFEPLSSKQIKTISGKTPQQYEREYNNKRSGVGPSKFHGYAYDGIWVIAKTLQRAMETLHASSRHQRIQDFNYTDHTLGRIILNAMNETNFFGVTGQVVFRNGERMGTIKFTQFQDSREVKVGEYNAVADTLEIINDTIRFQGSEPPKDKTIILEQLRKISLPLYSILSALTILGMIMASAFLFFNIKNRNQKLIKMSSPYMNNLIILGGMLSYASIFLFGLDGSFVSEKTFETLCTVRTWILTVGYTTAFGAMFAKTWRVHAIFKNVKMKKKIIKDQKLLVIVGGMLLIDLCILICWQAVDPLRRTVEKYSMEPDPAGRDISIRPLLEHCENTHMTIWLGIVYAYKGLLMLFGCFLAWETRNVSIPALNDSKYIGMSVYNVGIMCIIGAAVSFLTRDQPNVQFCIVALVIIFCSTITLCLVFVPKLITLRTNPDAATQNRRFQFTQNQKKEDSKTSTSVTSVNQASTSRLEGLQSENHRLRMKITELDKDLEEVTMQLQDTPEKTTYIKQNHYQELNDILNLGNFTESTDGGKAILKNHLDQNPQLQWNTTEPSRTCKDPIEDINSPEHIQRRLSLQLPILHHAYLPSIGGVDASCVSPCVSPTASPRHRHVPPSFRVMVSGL", "experiment": "PKA luminescence assay (R-RLuc-N / C-RLuc-C) of Gαi signaling in HEK293T cells"}, "GB1a/2 receptors [7]": {"target": "T1, GB1a/2 receptors", "experiment": "inter-subunit FRET conformational sensor (HA-GB1a-ACP / Flag-SNAP-GB2) in HEK293T cells", "conditions": "for Fig. 2c value, 10mM GABA / Fig. 2c value, Basal: + Vehicle Basal given as 100; for Fig. 2c value, Basal: Basal (no GABA)"}, "GB1a/2 receptors [8]": {"target": "T1, GB1a/2 receptors", "experiment": "Ca^2+ mobilization assay (Calcium 6) in HEK293T cells expressing GB1a/2", "assay_type": "cell-based", "design": "Flag (N); expressed in transfected cells; host or cells: HEK293T cells stably expressing chimeric Gαqi", "conditions": "1 or 10 μM"}},
  "note": "“Also recorded” adds a separate entry of the source.",
  "data": [
    {"substance": "Ac-DDSDVWWGGADTDYADG-NH2 [APP17]", "values": [
      {"measurement": "displacement of 1 μM APP17-TMR from GB1a/2 receptors (in words)", "setting": "[1]", "value": "displaced 1 μM APP17-TMR from GB1a/2 receptors"},
      {"measurement": "mEPSC frequency (in words)", "setting": "[2]", "value": "unable to detect a significant effect of APP17 on the mEPSC frequency"},
      {"measurement": "eEPSC amplitude (in words)", "setting": "[3]", "value": "not APP17 was able to reduce the amplitudes of eEPSCs"},
      {"measurement": "neuronal activity (in words)", "setting": "CA1 pyramidal cells", "value": "suppresses neuronal activity of CA1 pyramidal cells in anesthetized mice; also recorded: inhibited neuronal activity in the hippocampus of anesthetized mice"},
      {"measurement": "effect on GABA dose-response in [^35S]GTPγS binding (in words)", "setting": "[4]; 1 μM APP17", "value": "did not significantly differ from each other and exhibited similar EC50 and Emax values"},
      {"measurement": "EMax of GABA in presence of peptide", "setting": "[4]; APP17 1 μM, n=8", "value": 1.39},
      {"measurement": "EC50 of GABA in presence of peptide", "setting": "[4]; APP17 1 μM, n=8, pH 7.7, 30 μM GDP, 0.2 nM [^35S]GTPγS", "value": 16.37, "unit": "µM"},
      {"measurement": "Basal", "setting": "[4]; GABA curve fit, APP17 1 μM, n=8", "value": 0.98},
      {"measurement": "spontaneous Ca^2+ transients (in words)", "setting": "[5]", "value": "no significant effect compared to ACSF"},
      {"measurement": "GABA-mediated PKA inactivation in presence of peptide (in words)", "setting": "GB1a/2 receptors [6]; 10 μM peptide", "value": "GABA-mediated PKA inactivation was comparable"},
      {"measurement": "effect of peptide alone on luminescence/receptor activity (in words)", "setting": "GB1a/2 receptors [6]; 10 μM peptide", "value": "no agonistic, inverse agonistic, or antagonistic properties"},
      {"measurement": "receptor activity with APP695 in cis (in words)", "setting": "GB1a/2 receptors [6]; peptide, APP695 in cis", "value": "did not significantly alter GB1/2 receptor activity"},
      {"measurement": "Fig. 2c value, 10mM GABA", "setting": "GB1a/2 receptors [7]; 1 µM peptide with 10mM GABA, replicate 2", "value": 28.98},
      {"measurement": "Fig. 2c value, 10mM GABA", "setting": "GB1a/2 receptors [7]; 1 µM peptide with 10mM GABA, replicate 3", "value": 58.07},
      {"measurement": "Fig. 2c value, 10mM GABA", "setting": "GB1a/2 receptors [7]; 1 µM peptide with 10mM GABA, replicate 4", "value": 49.76},
      {"measurement": "Fig. 2c value, 10mM GABA", "setting": "GB1a/2 receptors [7]; 1 µM peptide with 10mM GABA, replicate 5", "value": 60.83},
      {"measurement": "Fig. 2c value, 10mM GABA", "setting": "GB1a/2 receptors [7]; 1 µM peptide with 10mM GABA, replicate 6", "value": 55.36},
      {"measurement": "Fig. 2c value, Basal", "setting": "GB1a/2 receptors [7]; 1 µM peptide, replicate 1", "value": 103.3},
      {"measurement": "Fig. 2c value, Basal", "setting": "GB1a/2 receptors [7]; 1 µM peptide, replicate 2", "value": 101},
      {"measurement": "Fig. 2c value, Basal", "setting": "GB1a/2 receptors [7]; 1 µM peptide, replicate 3", "value": 107.6},
      {"measurement": "Fig. 2c value, Basal", "setting": "GB1a/2 receptors [7]; 1 µM peptide, replicate 4", "value": 115.2},
      {"measurement": "Fig. 2c value, Basal", "setting": "GB1a/2 receptors [7]; 1 µM peptide, replicate 5", "value": 132.7},
      {"measurement": "Fig. 2c value, Basal", "setting": "GB1a/2 receptors [7]; 1 µM peptide, replicate 6", "value": 111.9},
      {"measurement": "Fig. 2c value, 10mM GABA", "setting": "GB1a/2 receptors [7]; 10 µM peptide with 10mM GABA, replicate 1", "value": 63.47},
      {"measurement": "Fig. 2c value, 10mM GABA", "setting": "GB1a/2 receptors [7]; 10 µM peptide with 10mM GABA, replicate 2", "value": 34.4},
      {"measurement": "Fig. 2c value, 10mM GABA", "setting": "GB1a/2 receptors [7]; 10 µM peptide with 10mM GABA, replicate 3", "value": 49.12},
      {"measurement": "Fig. 2c value, 10mM GABA", "setting": "GB1a/2 receptors [7]; 10 µM peptide with 10mM GABA, replicate 4", "value": 59.27},
      {"measurement": "Fig. 2c value, 10mM GABA", "setting": "GB1a/2 receptors [7]; 10 µM peptide with 10mM GABA, replicate 5", "value": 68.45},
      {"measurement": "Fig. 2c value, 10mM GABA", "setting": "GB1a/2 receptors [7]; 10 µM peptide with 10mM GABA, replicate 6", "value": 59.22},
      {"measurement": "Fig. 2c value, Basal", "setting": "GB1a/2 receptors [7]; 10 µM peptide, replicate 1", "value": 120},
      {"measurement": "Fig. 2c value, Basal", "setting": "GB1a/2 receptors [7]; 10 µM peptide, replicate 2", "value": 119.3},
      {"measurement": "Fig. 2c value, Basal", "setting": "GB1a/2 receptors [7]; 10 µM peptide, replicate 3", "value": 127.7},
      {"measurement": "Fig. 2c value, Basal", "setting": "GB1a/2 receptors [7]; 10 µM peptide, replicate 4", "value": 117.6},
      {"measurement": "Fig. 2c value, Basal", "setting": "GB1a/2 receptors [7]; 10 µM peptide, replicate 5", "value": 144.4},
      {"measurement": "Fig. 2c value, Basal", "setting": "GB1a/2 receptors [7]; 10 µM peptide, replicate 6", "value": 124.3},
      {"measurement": "FRET in the presence of 10 mM GABA (in words)", "setting": "GB1a/2 receptors [7]; 1 or 10 μM peptide + 10 mM GABA", "value": "no significant differences in FRET"},
      {"measurement": "FRET, basal, peptide alone (in words)", "setting": "GB1a/2 receptors [7]; 1 or 10 μM peptide without GABA", "value": "significantly increased instead of decreased FRET; also recorded: significant increase of FRET"},
      {"measurement": "effect on GABA potency (in words)", "setting": "GB1a/2 receptors [7]; LogEC50 of GABA dose-response", "value": "did not significantly alter GABA potency"},
      {"measurement": "intracellular Ca^2+ mobilization (in words)", "setting": "GB1a/2 receptors [8]", "value": "did not induce significant Ca^2+ mobilization"}
    ]}
  ]
}
